“And” between values parts separate entries of the source, which are not always exact repeats. Equal entries are not always repeated. Inconclusive results and toxic doses are left out. The calls were made as follows: active = survival T/C of 150% or more; inactive = T/C below 125% in these data. Square brackets hold non-standard residues; d marks the D form. Peptide text beside a SMILES is read from it. * marks the point of attachment. ξ: configuration not given here. ξF = NC(Cc1ccccc1)C(=O)O; Cbz = O=C(OCc1ccccc1)*
System: P388 leukemia ip, CD2F1 mice, survival T/C
Assay: NCI In Vivo Anticancer Drug Screen. Data for tumor model P388 Leukemia (intraperitoneal) in CD2F1 (CDF1) mice
Settings: endpoint: median survival time, higher = longer survival
Outline: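 Mice carrying the transplanted tumor received test compound or vehicle. Survival was recorded in each group, and the value is the treated-group measurement divided by that of the vehicle-treated control group.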

[1] = dose: 50.0 mg/kg/injection, schedule: Q01DX005 (ip), vehicle: saline with Tween-80
[2] = dose: 100.0 mg/kg/injection, schedule: Q01DX005 (ip), vehicle: saline with Tween-80
[3] = dose: 200.0 mg/kg/injection, schedule: Q01DX005 (ip), vehicle: saline with Tween-80
[4] = dose: 60.0 mg/kg/injection, schedule: Q01DX005 (ip), vehicle: saline with Tween-80
[5] = dose: 120.0 mg/kg/injection, schedule: Q01DX005 (ip), vehicle: saline with Tween-80
[6] = dose: 240.0 mg/kg/injection, schedule: Q01DX005 (ip), vehicle: saline with Tween-80
[7] = dose: 100.0 mg/kg/injection, schedule: Q04DX003 (ip), vehicle: Klucel (hydroxypropylcellulose) (HPC)
[8] = dose: 200.0 mg/kg/injection, schedule: Q04DX003 (ip), vehicle: Klucel (hydroxypropylcellulose) (HPC)
[9] = dose: 50.0 mg/kg/injection, schedule: Q01DX005 (ip), vehicle: Klucel (hydroxypropylcellulose) (HPC)
[10] = dose: 100.0 mg/kg/injection, schedule: Q01DX005 (ip), vehicle: Klucel (hydroxypropylcellulose) (HPC)
[11] = dose: 200.0 mg/kg/injection, schedule: Q01DX005 (ip), vehicle: Klucel (hydroxypropylcellulose) (HPC)
[12] = dose: 50.0 mg/kg/injection, schedule: Q01DX001 (ip), vehicle: saline
[13] = dose: 100.0 mg/kg/injection, schedule: Q01DX001 (ip), vehicle: saline
[14] = dose: 200.0 mg/kg/injection, schedule: Q01DX001 (ip), vehicle: saline

Measured: T/C

O=NN(CCCl)C(=O)Oc1ccc(F)cc1
inactive: dose: 3.12 mg/kg/injection, schedule: Q01DX001 (ip), vehicle: saline with Tween-80 118 % of control | dose: 6.25 mg/kg/injection, schedule: Q01DX001 (ip), vehicle: saline with Tween-80 116 % of control | dose: 50.0 mg/kg/injection, schedule: Q01DX001 (ip), vehicle: saline with Tween-80 106 % of control

CCCCCCCCCCCC(=O)NC(=O)N1CCOCC1
inactive: dose: 100.0 mg/kg/injection, schedule: Q01DX001 (ip), vehicle: saline with Tween-80 95 % of control | dose: 200.0 mg/kg/injection, schedule: Q01DX001 (ip), vehicle: saline with Tween-80 100 % of control | dose: 400.0 mg/kg/injection, schedule: Q01DX001 (ip), vehicle: saline with Tween-80 100 % of control

CCCn1c(Cl)c(/C=N\Nc2ccc([N+](=O)[O-])cc2[N+](=O)[O-])c2ccccc21
inactive: dose: 100.0 mg/kg/injection, schedule: Q04DX003 (ip), vehicle: saline with Tween-80 92 % of control | dose: 200.0 mg/kg/injection, schedule: Q04DX003 (ip), vehicle: saline with Tween-80 97 % of control | dose: 400.0 mg/kg/injection, schedule: Q04DX003 (ip), vehicle: saline with Tween-80 92 % of control

CN(N=O)C1=NC2(CCCCC2)P(=O)(NNc2ncccn2)O1 (stereo not given)
inactive: dose: 60.0 mg/kg/injection, schedule: Q01DX005 (ip), vehicle: saline 101 % of control | dose: 120.0 mg/kg/injection, schedule: Q01DX005 (ip), vehicle: saline 102 % of control

COC(=O)CNC(=O)C(NC(=O)C1CCCN1C(=O)OCc1ccccc1)C(C)C (stereo not drawn) (Cbz-Pro-Val-Gly-OMe; configuration not given here)
inactive: [1] 105 % of control | [2] 100 % of control | [3] 100 % of control

N=C1N=Nc2nc(C(C(=O)c3cccs3)c3nc4n(c3O)C(=N)N=N4)c(O)n21 (stereo not given)
inactive: [4] 97 % of control | [5] 100 % of control | [6] 106 % of control

CCOC(=O)CCCCCCCCNC(=O)N1c2c(nc(N)[nH]c2=O)NCC1CNc1ccc(C(=O)NC(CCC(=O)O)C(=O)O)cc1 (stereo not given)
inactive: dose: 50.0 mg/kg/injection, schedule: Q04DX003 (ip), vehicle: Klucel (hydroxypropylcellulose) (HPC) 111 % of control | [7] 106 % of control | [8] 108 % of control

COC(=O)C(=O)C(C#N)c1ccc(OC)c(OC)c1 (stereo not given)
inactive: [4] 99 % of control | [5] 104 % of control | [6] 95 % of control

CCC12OCC(C)(C)N1OC(=O)N2c1ccccc1 (stereo not given)
inactive: [9] 96 % of control | [10] 96 % of control | [11] 97 % of control

CC1(C)c2ccccc2-c2nc3ccccc3cc2C1O (stereo not given)
inactive: dose: 25.0 mg/kg/injection, schedule: Q01DX001 (ip), vehicle: saline 96 % of control | [12] 103 % of control | [13] 101 % of control | [14] 103 % of control

O=C1c2ccccc2C(=O)N1CS(=O)(=O)CN1C(=O)c2ccccc2C1=O
inactive: dose: 100.0 mg/kg/injection, schedule: Q04DX003 (ip), vehicle: saline 97 % of control | dose: 200.0 mg/kg/injection, schedule: Q04DX003 (ip), vehicle: saline 93 % of control | dose: 400.0 mg/kg/injection, schedule: Q04DX003 (ip), vehicle: saline 97 % of control

Cc1ccc(C(C(C)[N+](=O)[O-])C(C(=O)c2ccccc2)S(=O)(=O)c2ccccc2)cc1 (stereo not given)
inactive: [9] 93 % of control | [10] 106 % of control and 91 % of control | [11] 106 % of control and 89 % of control

CN(C)c1nnnn1Cc1ccccc1
inactive: [9] 97 % of control | [10] 97 % of control | [11] 106 % of control

CC(C[N+](C)(C)C)OC(N)=O (stereo not given)
inactive: [12] 101 % of control | [13] 100 % of control | [14] 108 % of control

NCC(=O)NC(Cc1ccccc1)C(=O)NCC(=O)O (stereo not given) (H-Gly-[ξF]-Gly-OH)
inactive: [9] 100 % of control | [10] 104 % of control | [11] 100 % of control

O=C1SC/C(=N\N=C2/CSC(=O)N2Cc2ccccc2)N1Cc1ccccc1
inactive: [9] 87 % of control | [10] 93 % of control | [11] 88 % of control

[Cu+2].[O-]c1ccc(Br)c2cccnc12.[O-]c1ccc(Br)c2cccnc12
inactive: dose: 12.5 mg/kg/injection, schedule: Q01DX009 (ip), vehicle: saline with Tween-80 104 % of control | dose: 25.0 mg/kg/injection, schedule: Q01DX009 (ip), vehicle: saline with Tween-80 100 % of control | dose: 33.0 mg/kg/injection, schedule: Q04DX003 (ip), vehicle: saline with Tween-80 90 % of control | dose: 50.0 mg/kg/injection, schedule: Q01DX009 (ip), vehicle: saline with Tween-80 104 % of control

NC(=O)c1c(-c2ccccc2)cn2c(C(=O)O)ccnc12
inactive: [4] 98 % of control | [5] 98 % of control | [6] 102 % of control

N#C/C(=C/c1cccs1)c1ccc(Cl)cc1
inactive: [7] 109 % of control | [8] 99 % of control

COc1ccc(N=C(c2ccccc2)C2C(=O)c3ccccc3C2=O)cc1
inactive: [1] 103 % of control | [2] 108 % of control | [3] 112 % of control

O=c1c(N=Nc2ccc(S(=O)(=O)Nc3nccs3)cc2)c(O)n(-c2ccccc2)n1-c1ccccc1
inactive: dose: 12.5 mg/kg/injection, schedule: Q01DX009 (ip), vehicle: Klucel (hydroxypropylcellulose) (HPC) 88 % of control | dose: 25.0 mg/kg/injection, schedule: Q01DX009 (ip), vehicle: Klucel (hydroxypropylcellulose) (HPC) 87 % of control and 93 % of control | dose: 50.0 mg/kg/injection, schedule: Q01DX009 (ip), vehicle: Klucel (hydroxypropylcellulose) (HPC) 90 % of control and 91 % of control and 92 % of control

CC(CCCN)Nc1cc2c(c3cccnc13)OCCO2 (stereo not given)
inactive: dose: 6.25 mg/kg/injection, schedule: Q01DX009 (ip), vehicle: saline 90 % of control | dose: 12.5 mg/kg/injection, schedule: Q01DX009 (ip), vehicle: saline 86 % of control | dose: 25.0 mg/kg/injection, schedule: Q01DX009 (ip), vehicle: saline 100 % of control

Cc1cc(Cl)c2ccc(Cl)c(C)c2n1
inactive: [1] 102 % of control | [2] 104 % of control | [3] 100 % of control

CS(=O)(=O)Cc1cc(-c2ccccc2)no1
inactive: [4] 100 % of control | [5] 99 % of control | [6] 100 % of control

CC1=Nc2cc(N)nn2C(=O)C1
inactive: dose: 25.0 mg/kg/injection, schedule: Q01DX005 (ip), vehicle: saline with Tween-80 93 % of control | [1] 96 % of control | [2] 102 % of control | [3] 93 % of control

CC(=Nc1cc(Cl)ccc1O)C1=C(O)c2ccccc2C1=O
inactive: dose: 50.0 mg/kg/injection, schedule: Q04DX002 (ip), vehicle: saline with Tween-80 94 % of control | dose: 100.0 mg/kg/injection, schedule: Q04DX002 (ip), vehicle: saline with Tween-80 97 % of control | dose: 200.0 mg/kg/injection, schedule: Q04DX002 (ip), vehicle: saline with Tween-80 97 % of control

Cc1cc(N=Nc2ccccc2)cc(C)c1N
inactive: dose: 100.0 mg/kg/injection, schedule: Q01DX009 (ip), vehicle: saline with Tween-80 90 % of control | dose: 200.0 mg/kg/injection, schedule: Q01DX009 (ip), vehicle: saline with Tween-80 90 % of control | dose: 400.0 mg/kg/injection, schedule: Q01DX009 (ip), vehicle: saline with Tween-80 100 % of control

c1cc2ccc1CSCCCSCc1ccc(cc1)CSCCCSC2
inactive: dose: 25.0 mg/kg/injection, schedule: Q01DX009 (ip), vehicle: suspension in saline 100 % of control | dose: 50.0 mg/kg/injection, schedule: Q01DX009 (ip), vehicle: suspension in saline 92 % of control | dose: 100.0 mg/kg/injection, schedule: Q01DX009 (ip), vehicle: suspension in saline 98 % of control

— PubChem BioAssay AID330 (DTP/NCI, 2004)
